For 18 compounds, T/C results are on record in PubChem BioAssay AID248 (DTP/NCI, 2004).

Inconclusive results and toxic doses are left out.

The experiment has as its system L1210 leukemia ip in BDF1 mice, survival T/C. Put plainly: NCI In Vivo Anticancer Drug Screen. Data for tumor model L1210 Leukemia (intraperitoneal) in B6D2F1 (BDF1) mice. As to conditions: endpoint: mean survival time, higher = longer survival. Put shortly: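 Mice bearing the transplanted tumor received compound or vehicle. Survival of the treated group was divided by that of the vehicle-treated control group to give the ratio.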

The mark [1] stands for this setting: dose: 100.0 mg/kg/injection, schedule: Q01DX009 (ip), vehicle: Klucel (hydroxypropylcellulose) (HPC).
Setting [2] is: dose: 200.0 mg/kg/injection, schedule: Q01DX009 (ip), vehicle: Klucel (hydroxypropylcellulose) (HPC).
The mark [3] stands for this setting: dose: 100.0 mg/kg/injection, schedule: Q04DX003 (ip), vehicle: Klucel (hydroxypropylcellulose) (HPC).
[4] abbreviates: dose: 50.0 mg/kg/injection, schedule: Q01DX009 (ip), vehicle: saline.
The mark [5] stands for this setting: dose: 100.0 mg/kg/injection, schedule: Q04DX003 (ip), vehicle: saline with Tween-80.
[6] abbreviates: dose: 200.0 mg/kg/injection, schedule: Q04DX003 (ip), vehicle: saline with Tween-80.
The mark [7] stands for this setting: dose: 400.0 mg/kg/injection, schedule: Q04DX003 (ip), vehicle: saline with Tween-80.
Setting [8] is: dose: 100.0 mg/kg/injection, schedule: Q01DX001 (ip), vehicle: other.
The mark [9] stands for this setting: dose: 200.0 mg/kg/injection, schedule: Q01DX001 (ip), vehicle: other.
Where [10] appears, read: dose: 400.0 mg/kg/injection, schedule: Q01DX001 (ip), vehicle: other.
The mark [11] stands for this setting: dose: 400.0 mg/kg/injection, schedule: Q01DX009 (ip), vehicle: Klucel (hydroxypropylcellulose) (HPC).

In the case of `CC(=O)Oc1ccccc1[N+](=O)[O-]`, the T/C under setting [1] was 106 % of control and the T/C under setting [2] is 91 % of control.

`N#CCCNC(Cc1ccc(O)cc1)C(=O)O` (stereo not given): the T/C is, setting by setting: (dose: 12.5 mg/kg/injection, schedule: Q04DX003 (ip), vehicle: Klucel (hydroxypropylcellulose) (HPC)) 104 % of control; (dose: 25.0 mg/kg/injection, schedule: Q01DX009 (ip), vehicle: Klucel (hydroxypropylcellulose) (HPC)) 104 % of control; (dose: 25.0 mg/kg/injection, schedule: Q04DX003 (ip), vehicle: Klucel (hydroxypropylcellulose) (HPC)) 98 % of control; (dose: 50.0 mg/kg/injection, schedule: Q01DX009 (ip), vehicle: Klucel (hydroxypropylcellulose) (HPC)) 95 % of control; (dose: 50.0 mg/kg/injection, schedule: Q04DX003 (ip), vehicle: Klucel (hydroxypropylcellulose) (HPC)) 104 % of control; under setting [1], 106 % of control. Besides, the T/C under setting [3] is 100 % of control.

On to `CCN(CC)CCSC(=O)c1ccccc1`, for which the T/C is, setting by setting: under setting [4], 94 % of control; (dose: 100.0 mg/kg/injection, schedule: Q01DX009 (ip), vehicle: saline) 100 % of control; (dose: 200.0 mg/kg/injection, schedule: Q01DX009 (ip), vehicle: saline) 100 % of control.

`COc1ccc2c(c1)Cc1cc(NC(=O)N(CCCl)N=O)ccc1-2`: the T/C is 151 % of control (dose: 10.0 mg/kg/injection, schedule: Q01DX009 (ip), vehicle: saline); 175 % of control (dose: 20.0 mg/kg/injection, schedule: Q01DX009 (ip), vehicle: saline); 122 % of control (dose: 25.0 mg/kg/injection, schedule: Q01DX001 (ip), vehicle: other); 188 % of control (dose: 33.0 mg/kg/injection, schedule: Q01DX009 (ip), vehicle: carboxymethylcellulose (CMC)); 123 % of control (dose: 45.0 mg/kg/injection, schedule: Q01DX001 (ip), vehicle: other); 163 % of control (dose: 50.0 mg/kg/injection, schedule: Q01DX009 (ip), vehicle: carboxymethylcellulose (CMC)). Further, the T/C runs as follows: (dose: 80.0 mg/kg/injection, schedule: Q01DX009 (ip), vehicle: other) 123 % of control; (dose: 177.0 mg/kg/injection, schedule: Q01DX001 (ip), vehicle: carboxymethylcellulose (CMC)) 182 % of control; (dose: 177.0 mg/kg/injection, schedule: Q01DX001 (ip), vehicle: other) 154 % of control; (dose: 177.0 mg/kg/injection, schedule: Q01DX009 (ip), vehicle: carboxymethylcellulose (CMC)) 107 % of control; (dose: 266.0 mg/kg/injection, schedule: Q01DX001 (ip), vehicle: carboxymethylcellulose (CMC)) 178 % of control; (dose: 266.0 mg/kg/injection, schedule: Q01DX001 (ip), vehicle: other) 154 % of control. In addition, the T/C was 97 % of control (dose: 266.0 mg/kg/injection, schedule: Q01DX009 (ip), vehicle: carboxymethylcellulose (CMC)); 193 % of control (dose: 400.0 mg/kg/injection, schedule: Q01DX001 (ip), vehicle: carboxymethylcellulose (CMC)); 96 % of control (dose: 400.0 mg/kg/injection, schedule: Q01DX009 (ip), vehicle: carboxymethylcellulose (CMC)); 186 % of control (dose: 600.0 mg/kg/injection, schedule: Q01DX001 (ip), vehicle: carboxymethylcellulose (CMC)).

As for `CCOC(=O)CC(=O)O`, the T/C is, setting by setting: (dose: 100.0 mg/kg/injection, schedule: Q01DX001 (ip), vehicle: saline) 91 % of control; (dose: 200.0 mg/kg/injection, schedule: Q01DX001 (ip), vehicle: saline) 97 % of control; (dose: 400.0 mg/kg/injection, schedule: Q01DX001 (ip), vehicle: saline) 91 % of control.

For the compound `Cc1ccccc1OC(=O)c1ccccc1`, the T/C runs as follows: under setting [5], 107 % of control; under setting [6], 104 % of control; under setting [7], 104 % of control.

`CCOC(=O)C1(O)CSC(O)(C(=O)OCC)CS1` (stereo not given): the T/C under setting [8] was 101 % of control, the T/C under setting [9] is 97 % of control and the T/C under setting [10] is 92 % of control.

As to `COc1cc(CCN2CCN(c3cc(C)ccc3Cl)CC2)cc(OC)c1OC`, the T/C is, setting by setting: under setting [8], 93 % of control; under setting [9], 97 % of control; under setting [10], 97 % of control.

With `O=C(NO)c1ccccc1.O=C(NO)c1ccccc1.O=C(NO)c1ccccc1.[Fe]`, the T/C (dose: 100.0 mg/kg/injection, schedule: Q04DX003 (ip), vehicle: DMSO) is 93 % of control.

For the compound `Cn1cnc(=O)c2ccccc21`, the T/C reads like this: (dose: 100.0 mg/kg/injection, schedule: Q04DX003 (ip), vehicle: saline) 88 % of control; (dose: 200.0 mg/kg/injection, schedule: Q04DX003 (ip), vehicle: saline) 100 % of control.

Turning to `COc1ccccc1NS(=O)(=O)c1ccc(Cl)cc1`, the T/C by setting is: under setting [1], 103 % of control; under setting [2], 112 % of control; under setting [11], 103 % of control.

Consider `CCCCCCCCOP(=O)(OCCCCCCCC)c1ccccc1`, for which the T/C (dose: 10.0 mg/kg/injection, schedule: Q01DX001 (ip), vehicle: acetone) was 91 % of control; the T/C (dose: 10.0 mg/kg/injection, schedule: Q04DX003 (ip), vehicle: acetone) was 97 % of control; the T/C (dose: 12.5 mg/kg/injection, schedule: Q01DX009 (ip), vehicle: saline) was 94 % of control; the T/C (dose: 20.0 mg/kg/injection, schedule: Q01DX001 (ip), vehicle: acetone) is 91 % of control; the T/C (dose: 20.0 mg/kg/injection, schedule: Q04DX003 (ip), vehicle: acetone) was 92 % of control; the T/C (dose: 25.0 mg/kg/injection, schedule: Q01DX009 (ip), vehicle: saline) was 94 % of control. Besides, the T/C was 86 % of control (dose: 40.0 mg/kg/injection, schedule: Q01DX001 (ip), vehicle: acetone); 97 % of control (dose: 40.0 mg/kg/injection, schedule: Q04DX003 (ip), vehicle: acetone); 94 % of control under setting [4]; 112 % of control (dose: 75.0 mg/kg/injection, schedule: Q01DX009 (ip), vehicle: saline); 106 % of control (dose: 115.0 mg/kg/injection, schedule: Q01DX009 (ip), vehicle: saline); 98 % of control (dose: 170.0 mg/kg/injection, schedule: Q01DX009 (ip), vehicle: saline).

Take `ClC1(Cl)C2CCCOC21` (stereo not given): the T/C reads like this: under setting [1], 97 % of control; under setting [2], 100 % of control; under setting [11], 98 % of control.

`CCCCNc1nc(N)nc(Nc2ccc(Br)cc2)c1N=O`: the T/C (dose: 100.0 mg/kg/injection, schedule: Q01DX001 (ip), vehicle: acetone) is 103 % of control; the T/C (dose: 100.0 mg/kg/injection, schedule: Q04DX003 (ip), vehicle: acetone) is 93 % of control; the T/C (dose: 200.0 mg/kg/injection, schedule: Q01DX001 (ip), vehicle: acetone) was 100 % of control; the T/C (dose: 200.0 mg/kg/injection, schedule: Q04DX003 (ip), vehicle: acetone) is 94 % of control; the T/C (dose: 400.0 mg/kg/injection, schedule: Q01DX001 (ip), vehicle: acetone) is 106 % of control; the T/C (dose: 400.0 mg/kg/injection, schedule: Q04DX003 (ip), vehicle: acetone) was 100 % of control.

Regarding `CNc1ccc(N=Nc2ccncc2C)cc1C`, the T/C under setting [5] is 102 % of control, the T/C under setting [6] is 96 % of control and the T/C under setting [7] was 96 % of control.

In the case of `Nc1ncnc2nc(SC3OC(CO)C(O)C3O)[nH]c12` (stereo not given), the T/C is, setting by setting: (dose: 150.0 mg/kg/injection, schedule: Q01DX001 (ip), vehicle: saline) 100 % of control; (dose: 300.0 mg/kg/injection, schedule: Q01DX001 (ip), vehicle: saline) 100 % of control.

Regarding `CCCCCCCCCCCCCCCCCC[N+]1(C)CCC1C` (stereo not given), the T/C (dose: 0.78 mg/kg/injection, schedule: Q04DX003 (ip), vehicle: saline) was 102 % of control and the T/C (dose: 1.56 mg/kg/injection, schedule: Q04DX003 (ip), vehicle: saline) is 101 % of control.

For the compound `CCOC(=O)/C(Cc1cc[n+]([O-])c2ccccc12)=N/O`, the T/C is 91 % of control under setting [1]; 92 % of control under setting [3]; 97 % of control under setting [2]; 90 % of control (dose: 200.0 mg/kg/injection, schedule: Q04DX003 (ip), vehicle: Klucel (hydroxypropylcellulose) (HPC)); 100 % of control under setting [11]; 100 % of control (dose: 400.0 mg/kg/injection, schedule: Q04DX003 (ip), vehicle: Klucel (hydroxypropylcellulose) (HPC)).
